The test system of assay [1] is murine HCC cell line (Hepa1-6). Description: AldeRed assay in Hepa1-6 cells. It counts as cell-based, mouse. The following applies: murine HCC cell line Hepa1-6, 24 hours. Here is the method:
Cultures of tumor cells or primary monocyte-derived cells were treated with C86, C91, C99, BMS 493 (Tocris, 3509) or Win 18446 (Tocris, 4736) at a time and concentration indicated in corresponding figure legends.
The AldeRed assay (EMD Millipore) was performed according to manufacturer's instructions to identify cells with ALDH activity. In brief, single-cell suspensions of Huh7, Huh1, SNU449, SNU398, HEP3B, PLC, Hepa 1-6, Hep55, and AL458A cultured cells or single-cell suspension generated from enzymatic digestion of tumors generated from transplantation of these cells in mice (as indicated in figure legends) were incubated with a fluorescent and non-toxic ALDH substrate (AldeRed 588-A); the fluorescent product accumulates in cells proportional to their ALDH activity. The amount of fluorescence produced is measured by flow cytometry. The ALDH inhibitor diethylaminobenzaldehyde (DEAB, provided with the AldeRed assay kit) was used as a negative control for background fluorescence assessment.

Another assay deals with Huh1 tumors. Description: Huh1 tumors in nude mice. The following applies: huh1 in immunodeficient mice; i.p, 10 mg/kg every day. It counts as in vivo, mouse. The procedure:
FIG. 27A: Huh1 tumor-bearing nude mice were treated with C86 (i.p, 10 mg/kg) every day. Three or more independent experiments with at least three replicates per sample type. Two-tailed T test. *p<0.05, **p<0.01, ***p<0.001. FIG. 27B: Equal numbers of Raldh1-KO Huh7 and parental Huh7 cells were seeded and viable cells counted over time. […] FIG. 27C: NU/J mice harboring flank Huh7 tumors were treated i.p with C86 daily or with liposomal chlodronate (CloLipo, 200 μl/mouse) every four days. Tumors were harvested 13 days post tumor induction and analyzed for the frequency (left graph) and number (right graph) of the macrophages (CD45+ F4/80+) under different treatment conditions (X-axis). Three or more independent experiments with at least three replicates per sample type. Two-tailed T test. *p<0.05, **p<0.01, ***p<0.001. FIG. 27D: Pictures depicting size differences amongst tumors in experiment outlined in FIG. 26G. […]
Cultured Huh7, Huh1, Hepa 1-6, Hep55, and FS (as indicated in figure legends) tumor cells were detached using 0.25% trypsin (Gibco, catalog #25200056), washed once with 1×PBS, and counted before implantation. […] Tumor dimensions were measured using a caliper starting at the day indicated in the accompanying figure legend and every two to three days thereafter; volume was calculated by using formula Length*Width^2/2. […]

A further assay concerns the target T1, Muscarinic M1 (Homo sapiens, UniProt P11229).
T1 construct: Eurofins Cereps Panlabs (contract panel)
Kind of assay: Safetyscreen: Muscarinic M1. It counts as binding. To be noted: read-out: % Inh. Muscarinic M1.

Another assay has as its target T2, Adenosine A1 (Homo sapiens, UniProt P30542).
T2 construct: Eurofins Cerep Panlabs (contract panel)
Description: Safetyscreen: Adenosine A1. It counts as binding. To be noted: read-out: % Inh. Adenosine A1.

The target in another assay is T3, GABABIA (Homo sapiens, UniProt Q9UBS5).
T3 construct: purchased Eurofins Cereps Panlabs
T3 sequence (Q9UBS5 15-961 limits assumed): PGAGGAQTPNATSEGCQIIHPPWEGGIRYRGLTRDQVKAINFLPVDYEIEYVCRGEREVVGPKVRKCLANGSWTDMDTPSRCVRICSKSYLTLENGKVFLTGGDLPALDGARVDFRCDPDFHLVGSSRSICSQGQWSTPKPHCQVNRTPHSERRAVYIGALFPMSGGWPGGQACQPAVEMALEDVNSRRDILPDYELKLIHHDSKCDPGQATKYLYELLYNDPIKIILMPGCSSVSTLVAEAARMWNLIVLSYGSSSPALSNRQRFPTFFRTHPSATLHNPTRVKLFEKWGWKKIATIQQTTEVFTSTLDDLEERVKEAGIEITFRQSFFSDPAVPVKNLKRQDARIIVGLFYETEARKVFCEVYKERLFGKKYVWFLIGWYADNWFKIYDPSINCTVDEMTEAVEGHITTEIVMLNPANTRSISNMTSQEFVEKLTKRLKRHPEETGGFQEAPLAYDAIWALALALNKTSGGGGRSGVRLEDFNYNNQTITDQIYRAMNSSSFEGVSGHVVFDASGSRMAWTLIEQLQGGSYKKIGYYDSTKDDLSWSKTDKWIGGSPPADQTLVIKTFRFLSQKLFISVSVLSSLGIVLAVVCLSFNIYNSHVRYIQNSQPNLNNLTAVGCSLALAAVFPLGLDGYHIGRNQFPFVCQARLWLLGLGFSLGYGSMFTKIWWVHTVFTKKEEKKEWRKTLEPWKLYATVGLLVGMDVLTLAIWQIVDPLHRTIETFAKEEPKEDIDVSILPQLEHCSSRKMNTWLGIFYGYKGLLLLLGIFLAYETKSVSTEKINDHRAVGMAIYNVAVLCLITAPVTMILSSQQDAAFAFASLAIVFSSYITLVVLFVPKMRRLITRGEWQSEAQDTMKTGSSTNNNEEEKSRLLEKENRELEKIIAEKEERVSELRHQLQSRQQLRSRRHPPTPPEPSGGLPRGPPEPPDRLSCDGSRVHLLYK
T3 sequence (O75899 42-941 partner): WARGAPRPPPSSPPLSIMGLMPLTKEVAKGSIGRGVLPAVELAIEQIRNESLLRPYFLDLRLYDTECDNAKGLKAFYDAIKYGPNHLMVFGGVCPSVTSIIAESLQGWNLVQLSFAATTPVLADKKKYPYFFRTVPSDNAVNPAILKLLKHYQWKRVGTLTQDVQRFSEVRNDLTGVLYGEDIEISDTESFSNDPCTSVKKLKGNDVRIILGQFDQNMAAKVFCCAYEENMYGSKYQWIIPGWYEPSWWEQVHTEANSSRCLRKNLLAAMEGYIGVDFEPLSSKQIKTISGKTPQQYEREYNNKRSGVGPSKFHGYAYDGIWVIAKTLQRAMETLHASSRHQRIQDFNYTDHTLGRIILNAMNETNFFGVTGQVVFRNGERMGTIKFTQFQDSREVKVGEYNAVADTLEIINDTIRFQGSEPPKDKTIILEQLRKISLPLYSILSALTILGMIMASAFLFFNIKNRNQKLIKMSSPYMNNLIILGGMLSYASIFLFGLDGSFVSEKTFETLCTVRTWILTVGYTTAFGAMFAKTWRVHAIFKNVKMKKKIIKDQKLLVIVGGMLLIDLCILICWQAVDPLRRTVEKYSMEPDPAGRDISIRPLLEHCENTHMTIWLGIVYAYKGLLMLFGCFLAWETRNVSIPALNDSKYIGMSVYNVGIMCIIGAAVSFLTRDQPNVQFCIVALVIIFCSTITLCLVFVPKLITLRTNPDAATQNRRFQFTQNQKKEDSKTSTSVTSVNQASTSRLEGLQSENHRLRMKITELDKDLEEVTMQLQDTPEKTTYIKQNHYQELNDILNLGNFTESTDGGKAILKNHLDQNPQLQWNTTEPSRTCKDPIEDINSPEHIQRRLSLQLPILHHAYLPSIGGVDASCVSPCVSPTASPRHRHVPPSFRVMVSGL
Kind of assay: Safetyscreen: GABABIA. To be noted: read-out: % Inh. GABABIA. It is filed as binding.

Assay [2] addresses T4, Serotonin (5-Hydroxytryptamine) 5-HT2B (Homo sapiens, UniProt P41595).
T4 construct: Eurofins Cereps Panlabs (contract panel)
Kind of assay: Safetyscreen: 5-HT2B. It counts as binding. The following applies: read-out: % Inh. Serotonin (5-Hydroxytryptamine) 5-HT2B.

The next assay concerns the target T5, Histamine H2 (Homo sapiens, UniProt P25021).
T5 construct: purchased Eurofins Cereps Panlabs
Description: Safetyscreen: Histamine H2. It is filed as binding. The following applies: read-out: % Inh. Histamine H2.

Another assay has as its target T6, Angiotensin AT1 (Homo sapiens, UniProt P30556).
T6 construct: purchased Eurofins Cereps Panlabs
Kind of assay: Safetyscreen: Angiotensin AT1. It counts as binding. The following applies: read-out: % Inh. Angiotensin AT1.

“Also recorded” adds a separate entry of the source.

T2 sequence (P30542 whole entry): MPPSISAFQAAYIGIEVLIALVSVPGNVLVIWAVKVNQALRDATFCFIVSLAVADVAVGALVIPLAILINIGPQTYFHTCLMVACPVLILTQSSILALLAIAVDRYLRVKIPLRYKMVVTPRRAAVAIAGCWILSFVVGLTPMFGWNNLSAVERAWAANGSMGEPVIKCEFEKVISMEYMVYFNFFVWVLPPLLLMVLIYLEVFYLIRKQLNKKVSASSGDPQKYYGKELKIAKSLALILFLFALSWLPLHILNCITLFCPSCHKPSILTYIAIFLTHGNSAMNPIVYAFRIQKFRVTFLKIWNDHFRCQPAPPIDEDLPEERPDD
T1 sequence (P11229 whole entry): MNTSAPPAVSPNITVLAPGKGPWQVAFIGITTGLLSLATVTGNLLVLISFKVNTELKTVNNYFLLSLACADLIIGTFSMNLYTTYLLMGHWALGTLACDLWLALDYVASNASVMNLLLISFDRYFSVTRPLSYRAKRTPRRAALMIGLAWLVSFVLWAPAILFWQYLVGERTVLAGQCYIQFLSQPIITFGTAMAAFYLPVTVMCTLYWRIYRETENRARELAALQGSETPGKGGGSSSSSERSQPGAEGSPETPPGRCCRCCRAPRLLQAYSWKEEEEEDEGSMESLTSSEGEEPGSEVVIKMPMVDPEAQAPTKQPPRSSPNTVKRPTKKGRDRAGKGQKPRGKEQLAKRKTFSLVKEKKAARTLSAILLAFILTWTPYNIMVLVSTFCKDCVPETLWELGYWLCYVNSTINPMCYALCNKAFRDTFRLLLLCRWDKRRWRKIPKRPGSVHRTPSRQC
T6 sequence (P30556 whole entry): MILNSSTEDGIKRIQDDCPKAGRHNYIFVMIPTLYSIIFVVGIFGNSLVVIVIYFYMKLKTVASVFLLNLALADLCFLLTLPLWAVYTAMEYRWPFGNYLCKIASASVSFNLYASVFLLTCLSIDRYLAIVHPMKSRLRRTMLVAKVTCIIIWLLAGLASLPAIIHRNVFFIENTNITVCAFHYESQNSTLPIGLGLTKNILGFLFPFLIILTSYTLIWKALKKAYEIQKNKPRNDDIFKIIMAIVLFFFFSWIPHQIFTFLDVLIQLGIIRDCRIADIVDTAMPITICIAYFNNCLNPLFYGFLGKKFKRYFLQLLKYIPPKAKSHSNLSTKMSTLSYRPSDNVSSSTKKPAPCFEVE
T5 sequence (P25021 whole entry): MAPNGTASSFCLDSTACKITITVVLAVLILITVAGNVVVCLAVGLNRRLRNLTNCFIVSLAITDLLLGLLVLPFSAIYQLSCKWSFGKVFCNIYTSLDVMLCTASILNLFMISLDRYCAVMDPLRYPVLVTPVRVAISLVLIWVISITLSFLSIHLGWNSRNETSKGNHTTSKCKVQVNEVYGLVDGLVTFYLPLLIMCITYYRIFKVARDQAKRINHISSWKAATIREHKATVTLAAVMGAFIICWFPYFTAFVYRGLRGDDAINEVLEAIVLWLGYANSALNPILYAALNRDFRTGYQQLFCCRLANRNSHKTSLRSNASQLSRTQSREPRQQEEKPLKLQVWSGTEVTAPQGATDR
T4 sequence (P41595 whole entry): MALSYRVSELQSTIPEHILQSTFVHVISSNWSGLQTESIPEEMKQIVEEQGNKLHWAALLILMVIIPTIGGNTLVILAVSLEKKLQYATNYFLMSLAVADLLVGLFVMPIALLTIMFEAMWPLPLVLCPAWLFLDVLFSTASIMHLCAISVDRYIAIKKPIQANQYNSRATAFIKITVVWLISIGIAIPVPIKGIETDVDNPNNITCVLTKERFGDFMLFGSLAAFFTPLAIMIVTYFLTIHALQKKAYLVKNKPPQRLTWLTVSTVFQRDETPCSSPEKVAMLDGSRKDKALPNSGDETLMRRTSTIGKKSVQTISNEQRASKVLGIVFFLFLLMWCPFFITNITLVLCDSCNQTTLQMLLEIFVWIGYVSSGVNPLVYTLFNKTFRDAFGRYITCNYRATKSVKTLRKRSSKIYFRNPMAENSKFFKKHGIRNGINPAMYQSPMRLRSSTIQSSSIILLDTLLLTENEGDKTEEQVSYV

Turning to `CS(=O)(=O)N1CCN(C(=O)c2cnc3ccc(F)cc3c2N2CCC(C#N)(c3ccccc3)CC2)CC1` [Compound C-86, 1-(6-fluoro-3-(4-(methylsulfonyl)piperazine-1-carbonyl)quinolin-4-yl)-4-phenylpiperidine-4-carbonitrile], in assay [1], the AldeRed fluorescence result is “no change in AldeRed fluorescence; also recorded: failed to reduce AldeRed fluorescence”. Further, the tumor inhibition result in the assay on Huh1 tumors is given as “significant tumor inhibition”. The inhibition at 10 µM at Muscarinic M1 was 3%; on Adenosine A1, 4%; at GABABIA, 7%; in assay [2] it was -5%; on Histamine H2, -3%; at Angiotensin AT1 it was 19%.

For the origin of these results see patent US20260248799A1, “COMBINATIONS OF RETINALDEHYDE DEHYDROGENASE 1 (RALDH1) INHIBITORS AND IMMUNOSTIMULATORS AND METHODS USING SAME” (The Trustees of the University of Pennsylvania, priority 2023, published 2026).
